The source of these data is patent US20140163082A1, “PYRAZOLYL COMPOUNDS FOR USE IN REVERSING REACTIVE GLIOSIS” (priority 2011, published 2014).

Data set [1] concerns R28 cells. Briefly: GFAP immunofluorescence, R28. The data set is classed as cell-based, rat. Conditions: for GFAP protein expression (immunofluorescence): vs hypoxic controls. As to the method: (§1) Cells were placed in airtight chambers [BioSpherix, Redfield, N.Y.] and the O2 tension was maintained at 1.2% by using Pro-Ox Model 110 O2 regulator [BioSpherix, Redfield, N.Y.]. The chamber was purged with a gas mixture of 5.32% CO2, and 93.48% N2. […] Müller cells [rMC-1] and […] cells [2×10^4 cells per well] were grown on 8-well chamber slides and cultured in 300 μl of their growing media, which contained YC-1 [25-100 μM] or DMSO [0.2% v/v] and incubated under normoxia or hypoxia for 48 hours at 37° C. YC-1 or DMSO was added 5 minutes prior to the hypoxic incubation. The cells were fixed 48 hours later with 3.7% paraformaldehyde and permeabilized with 0.2% TritonTM X-100 in PBS. The cells were incubated for two hours with anti-GFAP antibody. Negative control experiments consisted of omission of the primary antibody. Cells were then incubated with HRP-conjugate working solution, followed by the addition of the […] solution [TSA Kit#2 and #4 for rMC-1 and […] staining, respectively] at 1:100 dilutions [Molecular Probes, Carlsbad, Calif.]. Digitized images were acquired utilizing AxioVision software [Zeiss Axiovert 135 and AxioCam]. Intensity values of immunofluorescence staining of GFAP in rMC-1 and […] cells was analyzed and quantified using MetamorphTM imaging analysis software version 6.0 [Universal Imaging, Sunnyvale, Calif.]. The staining intensity in our series ranged from a weak blush to moderate or strong. The amount of cells staining with the antibody was further categorized as focal [<10%], patchy [10%-50%], and diffuse [>50%]. For semiquantitative analysis, focal and/or weak staining was considered equivocal staining, and patchy or diffuse staining was subcategorized as either moderate or strong.

Data set [2] deals with R28 cells. Briefly: Western blot, R28. The data set is classed as cell-based, rat. The settings on record: R28, hypoxia 48 hours, YC-1 25-100 μM. As to the method: (§2) Cells were placed in airtight chambers [BioSpherix, Redfield, N.Y.] and the O2 tension was maintained at 1.2% by using Pro-Ox Model 110 O2 regulator [BioSpherix, Redfield, N.Y.]. The chamber was purged with a gas mixture of 5.32% CO2, and 93.48% N2. […] Müller cells [rMC-1] and […] cells were seeded overnight in 6-well plates [10^5 cells/well]. Cells were treated with either YC-1 [25-100 μM] or DMSO [0.2% v/v] for 48 hours under normoxic or hypoxic environments. Reactions were terminated by addition of lysis buffer [Cell Signaling, Beverly, Mass.]. Protein content of the cell lysates was determined according to the Bradford method [Bio-Rad, Hercules, Calif.]. Aliquots [40 μg] of whole-cell lysates were separated on 7.5% SDS-PAGE, and electro-transferred onto polyvinylidene membranes [Amersham Pharmacia Biotech, Little Chalfont]. After blocking with 5% nonfat dry milk in TBS-T, the blots were incubated overnight with anti-iNOS [at 1:100] and anti-β-actin [internal control] antibodies. Then blots were washed 3×10 min washes in PBS/tween and subsequently incubated with peroxidase-conjugated anti-mouse IgG secondary antibody at 1:3000. The signals were obtained by enhanced chemiluminescence [Amersham Biosciences], and visualized by exposure to X-ray film. Upon completion of chemiluminescence, equal lane loading was checked by Ponceau S Solution [Sigma, St. Louis, Mo.]. X-ray films were scanned with a computer-assisted densitometer [model G-710; Bio-Rad] to quantify band optical density [Quantity One software; Bio-Rad].

Data set [3] concerns R28 cells.
The subject of data set [4] is hRMVECs cocultured with rMC-1 cells. Briefly: Cell proliferation in a co-culture system model (MTT). The data set is classed as cell-based, human. The settings on record: rMC-1 cells treated with YC-1 100 μM for 24 hours, normoxic and hypoxic conditions. As to the method: To test the influence of Móller cells [rMC-1] on the hRMVECs proliferation, rMC-1 [2×10^5 cells cm—2] were plated in a transwell insert [Millipore, Billerica, Mass.] with […] pores and allowed to adhere overnight in 150 μL of CS—C complete medium [Cell Systems, Kirkland, Wash.], supplemented with 10% FBS and incubated at 37° C. under normoxic [5% CO2/95% air]. The rMC-1 cells were then incubated under normoxic [5% CO2/95% air], or hypoxic conditions. To establish hypoxic conditions, cells were placed in airtight chambers [BioSpherix, Redfield, N.Y.] that were flushed with a gas mixture of 5% CO2 and 95% N2. Oxygen concentrations within these chambers were maintained at 1.2% using Pro-Ox Model 110 O2 regulators. After treating the r-MC-1 cells with YC-1 [100 μM] for 24 hours, the insert was then placed into 24 well-plates, in which hRMVECs were plated at 5×10^3 cells cm^−2 and allowed to adhere overnight [FIG. 7B]. hRMVECs proliferation was evaluated using 3, […]-2,5-diphenyl tetrazolium bromide [MTT] colorimetric assay [Mosmann,1983], at 24, 48, 72, and 96 hours after coculture. During the last 4 hours of each day, […] of 5 mg/ml MTT [Millipore, Billerica, Mass.] was added in each well. Formed Formazan crystals were dissolved in […] DMSO and optical density was recorded at 492 nm. Experiments were performed on at least three independent occasions. […]

Data set [5] has as its system rMC-1 cells. As to the kind of experiment: Western blot, rMC-1. The class given is cell-based. The settings on record: rMC-1, hypoxia 48 hours, YC-1 25-100 μM. As to the method:
as §2

The subject of data set [6] is rMC-1 cells. As to the kind of experiment: GFAP immunofluorescence, rMC-1. The data set is classed as cell-based. Conditions: for GFAP protein expression (immunofluorescence): vs hypoxic controls. As to the method: as §1
Setting [7] is: R28, 25 μM YC-1, hypoxia 48 hours.
Setting [8] is: rMC-1, 25 μM YC-1, hypoxia 48 hours.

Take `OCc1ccc(-c2nn(Cc3ccccc3)c3ccccc23)o1` [YC-1, 3-(5′-hydroxymethyl-2′-furyl)-1-benzylindazole]: the figures for the “GFAP cytoplasmic staining pattern/intensity (immunofluorescence)” value in the data set on R28 cells [1] (setting [7]) and in the data set on rMC-1 cells [6] (setting [8]) were “stronger diffuse cytoplasmic GFAP staining” and “weaker equivocal staining intensity”, respectively. Also, the “GFAP staining vs DMSO-treated hypoxic controls (immunofluorescence)” value in the data set on R28 cells [1] (setting [7]) and in the data set on rMC-1 cells [6] (setting [8]) was “remarkable inhibition” throughout. For the same compound, the “GFAP protein expression (immunofluorescence)” value is “significant inhibitory effects” in the data set on R28 cells [1] (R28, 50 μM YC-1, hypoxia); “significant inhibitory effects” in the data set on R28 cells [1] (R28, 75 μM YC-1, hypoxia); “significant inhibitory effects” in the data set on rMC-1 cells [6] (rMC-1, 50 μM YC-1, hypoxia); “significant inhibitory effects” in the data set on rMC-1 cells [6] (rMC-1, 75 μM YC-1, hypoxia). The “GFAP staining remaining in cytoplasm (immunofluorescence)” value was “few stained regions” in the data set with R28 cells [1] (R28, 100 μM YC-1, hypoxia) and “few stained regions” in the data set on rMC-1 cells [6] (rMC-1, 100 μM YC-1, hypoxia). Also, the “GFAP protein levels (quantified staining intensity, FIG. 11C)” value is reported as “significantly reduced” with R28 cells [1] (R28, hypoxia, dose-dependent fashion) and “significantly reduced” in the data set on rMC-1 cells [6] (rMC-1, hypoxia, dose-dependent fashion). Moreover, the “HIF-1 protein level (Western blot)” value in the data set on R28 cells [2] (vs DMSO-treated hypoxic cells) and with rMC-1 cells [5] (vs DMSO-treated hypoxic cells) was “inhibited the hypoxia-induced upregulation” each time. Also, the “PDGF-B protein level (Western blot)” value with R28 cells [2] (vs DMSO-treated hypoxic cells) and with rMC-1 cells [5] (vs DMSO-treated hypoxic cells) was “inhibited the hypoxia-induced upregulation” in each case. Besides, the “VEGF protein level (Western blot)” value with R28 cells [2] (vs DMSO-treated hypoxic cells) and in the data set with rMC-1 cells [5] (vs DMSO-treated hypoxic cells) was “inhibited the hypoxia-induced upregulation” throughout. For the same compound, the “iNOS protein level (Western blot)” value with R28 cells [2] (vs DMSO-treated hypoxic cells) and in the data set with rMC-1 cells [5] (vs DMSO-treated hypoxic cells) was “inhibited the hypoxia-induced upregulation” each time. For the same compound, the “GFAP protein level (Western blot)” value with R28 cells [2] (vs non-treated hypoxic cells) and in the data set on rMC-1 cells [5] (vs non-treated hypoxic cells) was “inhibited the hypoxia-induced GFAP protein levels in a dose-dependent manner” each time. Further, the “cell viability (DAPI exclusion)” value in the data set on R28 cells [3] is recorded as “comprised the majority of cells”. Further, the “proliferation of hRMVECs in coculture” value in data set [4] is on record as “significantly suppressed”.
